The values that follow come from patent US8628771B2, “CA IX-specific inhibitors” (Institute of Virology Slovak Academy of Sciences, priority 2002, dated 2014).

Data set [1] concerns human red cells. Particulars: pH 7.4.
The conditions of data set [2]: from reference [58]; cited from earlier work.
Data set [3] concerns the target T1, hCA I (Homo sapiens, UniProt P00915).
T1 construct: made in house; host or cells: Escherichia coli BL21 (DE3)
The data set is described as follows: CA esterase activity assay, isozyme hCA I. The class given is biochemical. Particulars: Table 2; human (cloned) isozymes; read-out: KI hCA I.

The target in data set [4] is T2, hCA II (Homo sapiens, UniProt P00918).
T2 construct: made in house; host or cells: Escherichia coli BL21 (DE3)
The data set is described as follows: CA esterase activity assay, isozyme hCA II. The following applies: Table 2; human (cloned) isozymes; read-out: KI hCA II. Type of data set: biochemical.

The target of data set [5] is T3, bCA IV (Bos taurus, UniProt Q95323).
T3 construct: CA IV was isolated from bovine lung microsomes as described by Maren et al; from tissue; host or cells: bovine lung microsomes
T3 sequence (Q95323 19-284): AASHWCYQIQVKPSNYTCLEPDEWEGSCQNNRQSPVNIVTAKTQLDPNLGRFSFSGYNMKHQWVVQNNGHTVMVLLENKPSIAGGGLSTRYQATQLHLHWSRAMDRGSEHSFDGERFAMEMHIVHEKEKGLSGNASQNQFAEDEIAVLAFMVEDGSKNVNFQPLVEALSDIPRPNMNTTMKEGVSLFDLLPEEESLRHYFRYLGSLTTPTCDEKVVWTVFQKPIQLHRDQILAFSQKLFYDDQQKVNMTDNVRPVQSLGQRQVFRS
Put plainly: CA esterase activity assay, isozyme bCA IV. Type of data set: biochemical, bovine.

Data set [6] deals with MDCK-CA IX cells. The data set is described as follows: Extracellular pH (pHe) of sulfonamide-treated MDCK-CA IX cells. The class given is cell-based, canine. Particulars: 48 hours; for effect on extracellular acidification: hypoxia (2% O2); for effect on the normoxic pHe: normoxia. As for the experimental part: To maintain the standard conditions, the cells were always plated in 3 ml of culture medium at a density of 0.8-1×10^6 per 6 cm dish 24 hours before the transfer to hypoxia (2% O2 and 5% CO2 balanced with N2) generated in a Napco 7000 incubator. Parallel normoxic dishes were incubated in air with 5% CO2.
Compound 6 sulfonamide [4-(2-aminoethyl)-benzenesulfonamide] was from Sigma-Aldrich. […] The sulfonamides were dissolved in PBS with 20% DMSO at 100 mM concentration and diluted in a culture medium to a required final concentration just before their addition to cells. The cells were incubated for 48 hours in hypoxia and normoxia, respectively, the pH of the culture medium was measured and the binding of the FITC-labeled Compound 92 to living cells, washed three times with PBS, was viewed by a Nikon E400 epifluorescence microscope.

In data set [7] the target is hCA IX (Homo sapiens, UniProt Q16790). Put plainly: CA CO2 hydrase activity assay, tumor-associated isozyme hCA IX.
Protocol: An SX.18MV-R Applied Photophysics stopped-flow instrument has been used for assaying the CA CO2 hydration activity assays [44]. […] Inhibitor and enzyme solutions were preincubated together for 10 min at room temperature prior to assay, in order to allow for the formation of the E-I complex.
Data set [8] concerns human red cells. Put plainly: Membrane permeance assay: ex vivo penetration through red blood cells. Particulars: pH 7.4; for [sulfonamide] in red blood cells, HPLC: HPLC method; for [sulfonamide] in red blood cells, ES: electronic spectroscopic method; for [sulfonamide] in red blood cells, EI: enzymatic method.

Values joined by “and” are separate entries in the source; they are usually repeats but may differ in a detail not shown here. Identical values can stand only once. Counter-ions that a name gives are not always drawn. Like-named read-outs stand apart in the source and are kept apart here.

T1 sequence (P00915 whole entry): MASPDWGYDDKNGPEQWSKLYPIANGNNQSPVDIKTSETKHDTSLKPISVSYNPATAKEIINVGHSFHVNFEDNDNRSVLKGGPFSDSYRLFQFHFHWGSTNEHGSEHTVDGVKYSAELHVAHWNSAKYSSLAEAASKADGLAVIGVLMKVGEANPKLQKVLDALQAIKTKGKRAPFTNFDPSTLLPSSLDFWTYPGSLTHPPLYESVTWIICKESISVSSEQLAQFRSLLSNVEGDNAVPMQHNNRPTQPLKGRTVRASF

As to `CCCc1cc(-c2ccccc2)cc(CCC)[n+]1-c1ccc(S(=O)(=O)Nc2nnc(S(N)(=O)=O)s2)cc1` (as salt: perchlorate) [Compound 77, 1-N-[5-Sulfamoyl-1,3,4-thiadiazol-2-yl-(aminosulfonyl-4-phenyl)]-2,6-di-n-propyl-4-phenylpyridinium perchlorate], the melting point (as a rule, the temperature of the solid-liquid transition) was 235 to 237 °C.

The compound `Cc1cc(-c2ccccc2)cc(C)[n+]1-c1ccc(S(=O)(=O)Nc2nnc(S(N)(=O)=O)s2)cc1` (as salt: perchlorate) [Compound 75, 1-N-[5-Sulfamoyl-1,3,4-thiadiazol-2-yl-(aminosulfonyl-4-phenyl)]-2,6-dimethyl-4-phenylpyridinium perchlorate] yielded a melting point of over 300 °C.

In the case of Benzolamide [reference compound], the “incubation period to saturation of hCA I and hCA II in erythrocytes with inhibitor” value in data set [1] turned out to be 60 min. For the same compound, the “pKa for the second sulfonamido group” value in data set [2] is reported as 3.2.

Regarding `Cc1cc(C)[n+](Cc2ccc(S(N)(=O)=O)cc2)c(C)c1` [Compound 39], the Ki – broadly, a measure of affinity in units of concentration, obtained from inhibition or displacement – was determined as 7000 nM in data set [3]; 50 nM in data set [4]; 92 nM in [5] (Table 2, from bovine lung microsomes, read-out: KI bCA IV); 38 nM in data set [7] (read-out: KI hCA IX, Table 2, catalytic domain of the human, cloned isozyme). The “effect on extracellular acidification” value in [6] was “able to reduce the extracellular acidification”. Besides, in [6], the “effect on the normoxic pHe” value is “negligible”.

In turn, `Cc1cc(-c2ccccc2)cc(-c2ccccc2)[n+]1-c1ccc(S(=O)(=O)Nc2nnc(S(N)(=O)=O)s2)cc1` (as salt: perchlorate) [Compound 80, 1-N-[5-Sulfamoyl-1,3,4-thiadiazol-2-yl-(aminosulfonyl-4-phenyl)]-2-methyl-4,6-diphenylpyridinium perchlorate] registered a melting point of 298 to 299 °C.

`CC(C)(C)c1cc(-c2ccccc2)cc(-c2ccccc2)[n+]1-c1ccc(S(=O)(=O)Nc2nnc(S(N)(=O)=O)s2)cc1` (as salt: perchlorate) [Compound 85, 1-N-[5-Sulfamoyl-1,3,4-thiadiazol-2-yl-(aminosulfonyl-4-phenyl)]-2-tert-butyl-4,6-diphenylpyridinium perchlorate]: the melting point lay in the range of 203 to 205 °C.

Take `CCc1cc(-c2ccccc2)cc(CC)[n+]1-c1ccc(S(=O)(=O)Nc2nnc(S(N)(=O)=O)s2)cc1` (as salt: perchlorate) [Compound 76, 1-N-[5-Sulfamoyl-1,3,4-thiadiazol-2-yl-(aminosulfonyl-4-phenyl)]-2,6-diethyl-4-phenylpyridinium perchlorate]: the melting point fell in the range of 267 to 268 °C.

Consider `Cc1cc(C)[n+](-c2ccc(S(=O)(=O)Nc3nnc(S(N)(=O)=O)s3)cc2)c(C)c1C` (as salt: perchlorate) [Compound 89, 1-N-[5-Sulfamoyl-1,3,4-thiadiazol-2-yl-(aminosulfonyl-4-phenyl)]-2,3,4,6-tetramethylpyridinium perchlorate], for which the melting point is over 300 °C.

As for `NCCc1ccc(S(N)(=O)=O)cc1` [Compound 6, 4-(2-aminoethyl)-benzenesulfonamide], in [6], the “effect on extracellular acidification” value is “able to reduce the extracellular acidification” and the “effect on the normoxic pHe” value is recorded as “negligible”.

As for `CCc1cc(-c2ccccc2)cc(-c2ccccc2)[n+]1-c1ccc(S(=O)(=O)Nc2nnc(S(N)(=O)=O)s2)cc1` (as salt: perchlorate) [Compound 81, 1-N-[5-Sulfamoyl-1,3,4-thiadiazol-2-yl-(aminosulfonyl-4-phenyl)]-2-ethyl-4,6-diphenylpyridinium perchlorate], the melting point lay within 254 to 255 °C.

On to `NS(=O)(=O)c1nnc(NS(=O)(=O)c2ccc(-[n+]3c(-c4ccccc4)cccc3-c3ccccc3)cc2)s1` (as salt: perchlorate) [Compound 88, 1-N-[5-Sulfamoyl-1,3,4-thiadiazol-2-yl-(aminosulfonyl-4-phenyl)]-2,6-diphenylpyridinium perchlorate], for which the melting point was in the range of 218 to 220 °C.

The compound `CC(C)c1cc(-c2ccccc2)cc(C(C)C)[n+]1-c1ccc(S(=O)(=O)Nc2nnc(S(N)(=O)=O)s2)cc1` (as salt: perchlorate) [Compound 79, 1-N-[5-Sulfamoyl-1,3,4-thiadiazol-2-yl-(aminosulfonyl-4-phenyl)]-2,6-di-isopropyl-4-phenylpyridinium perchlorate] came in with a melting point of 278 to 279 °C.

`CC(C)c1cc(-c2ccccc2)cc(-c2ccccc2)[n+]1-c1ccc(S(=O)(=O)Nc2nnc(S(N)(=O)=O)s2)cc1` (as salt: perchlorate) [Compound 83, 1-N-[5-Sulfamoyl-1,3,4-thiadiazol-2-yl-(aminosulfonyl-4-phenyl)]-2-iso-propyl-4,6-diphenylpyridinium perchlorate]: the melting point was 186 to 188 °C.

The compound `Cc1cc(C)[n+](-c2ccc(S(=O)(=O)Nc3nnc(S(N)(=O)=O)s3)cc2)c(C)c1` (as salt: perchlorate) [Compound 71, 1-N-[5-Sulfamoyl-1,3,4-thiadiazol-2-yl-(aminosulfonyl-4-phenyl)]-2,4,6-trimethyl-pyridinium perchlorate] registered a melting point of over 300 °C.

Consider `Nc1ccc(S(=O)(=O)Nc2nnc(S(N)(=O)=O)s2)cc1` [Compound 15, 5-(4-aminobenzenesulfonylamino)-1,3,4-thiadiazole-2-sulfonamide], for which the Ki in data set [5] is about 5 nM; in data set [5] (read-out: KI bCA IV) it was 5 nM and 5.1 nM; in data set [7] (KI against CA IX), 14 to 50 nM; in data set [7] (read-out: KI against CA IX), 38 nM; in [7] (read-out: KI hCA IX), 38 nM. In addition, the “incubation period to saturation of hCA I and hCA II in erythrocytes with inhibitor” value in data set [1] (human, 2 mM) was 60 min. Further, the “[sulfonamide] in red blood cells, EI” value in data set [1] (human, 30 min, 2 mM) turned out to be 122 µM; in data set [1] (human, 60 min, 2 mM), 158 µM. Moreover, the “[sulfonamide] in red blood cells, ES” value in [1] (human, 30 min, 2 mM) was 127 µM; in [1] (human, 60 min, 2 mM) it was 156 µM. In addition, the “[sulfonamide] in red blood cells, HPLC” value in data set [1] (human, 30 min, 2 mM) came to 125 µM; in [1] (human, 60 min, 2 mM), 154 µM. Also, the “pKa for the second sulfonamido group” value in data set [2] is reported as 3.2.

In the case of `NS(=O)(=O)c1nnc(NS(=O)(=O)c2ccc(-[n+]3c(-c4ccccc4)cc(-c4ccccc4)cc3-c3ccccc3)cc2)s1` (as salt: perchlorate) [Compound 87, 1-N-[5-Sulfamoyl-1,3,4-thiadiazol-2-yl-(aminosulfonyl-4-phenyl)]-2,4,6-triphenyl-pyridinium perchlorate], the melting point was over 300 °C.

Turning to `CC(=O)/N=c1/sc(S(N)(=O)=O)nn1C` [MZA, methazolamide], the “[sulfonamide] in red blood cells, HPLC” value in data set [8] (t = 30 min, 2 mM sulfonamide in 5 mM Tris buffer) amounted to 170 µM. In addition, in data set [8] (t = 30 min, 2 mM sulfonamide), the “[sulfonamide] in red blood cells, ES” value turned out to be 169 µM and the “[sulfonamide] in red blood cells, EI” value amounted to 165 µM. In data set [8] (t = 60 min, 2 mM sulfonamide), the “[sulfonamide] in red blood cells, HPLC” value was 168 µM; the “[sulfonamide] in red blood cells, ES” value came to 168 µM; the “[sulfonamide] in red blood cells, EI” value came to 167 µM.

In turn, `Cc1cc(C(C)C)[n+](-c2ccc(S(=O)(=O)Nc3nnc(S(N)(=O)=O)s3)cc2)c(C(C)C)c1` (as salt: perchlorate) [Compound 73, 1-N-[5-Sulfamoyl-1,3,4-thiadiazol-2-yl-(aminosulfonyl-4-phenyl)]-2,6-di-iso-propyl-4-methylpyridinium perchlorate] returned a melting point of 278 to 279 °C.

On to `CCCCc1cc(-c2ccccc2)cc(-c2ccccc2)[n+]1-c1ccc(S(=O)(=O)Nc2nnc(S(N)(=O)=O)s2)cc1` (as salt: perchlorate) [Compound 84, 1-N-[5-Sulfamoyl-1,3,4-thiadiazol-2-yl-(aminosulfonyl-4-phenyl)]-2-n-butyl-4,6-diphenylpyridinium perchlorate], for which the melting point lay within 241 to 243 °C.
